Reference: patent US20160038526A1, “TREATMENT OF PROSTATE CANCER” (THOMAS JEFFERSON UNIVERSITY, priority 2012, published 2016)
“Also recorded” adds a separate entry of the source.

What was measured:
Stat5b = target: T1, Stat5b (Homo sapiens, UniProt P51692); assay: Stat5b transcriptional activity, β-casein promoter luciferase reporter gene assay in PC-3 cells; type: cell-based; settings: 1 hour pretreatment, 10 nM hPrl for 16 hours
T1 construct: expressed in transfected cells; host or cells: PC-3 (human prostate cancer cell line)
Description: Cells of the human prostate cell line PC-3 were plated into 96-well plate at the density of 2×10^5 per well. After 24 hours of plating, cells were transiently co-transfected using FuGENE6 (Roche) with 0.25 μg of each of pStat5a or pStat5b, pPrlR (prolactin receptor) plasmids, 0.5 μg of pBeta-casein-luc and 0.025 μg of pRL-TK (Renilla luciferase) plasmids as an internal control. After another 24 hours of transfection, the cells were starved in serum-free medium for 8 hours, pretreated with N^6-benzyladenosine-5′-monophosphate (“N6BAP”), or one of five control compounds (designated “C3” through “C7”) of similar molecular weight but unrelated chemical structure to N6BAP), for 1 hour, and then stimulated with 10 nM human prolactin (hPrl) in the serum-free medium for additional 16 hours. The lysates were assayed for firefly and Renilla luciferase activities using the Dual-Luciferase reporter assay system (Promega). Three independent experiments were carried out in triplicate. The firefly luciferase activity was normalized to the Renilla luciferase activity of the same sample, and the mean was calculated from the parallels. From the mean values of each independent run, the overall mean and its standard deviation (S.D.) were calculated.

[1] = test system: CAPAN human pancreatic cancer cells; assay: Cell viability assay, CAPAN; type: cell-based
Description: (§1) CWR22Rv1 prostate cancer cells were treated with N6BAP or the control compound C5 (Ctrl) at 25 μM concentration or vehicle for 24 h. Following trypan blue exclusion, the attached viable vs. de-attached dead cells were counted. […] The bars indicate mean±SD of triplicate wells. In another assay, CWR22Rv1, LNCaP and DU145 cells were treated with N6BAP, the control compound C5 (Ctrl) or vehicle at indicated concentrations. The fraction of alive cells was determined by MTS ([…]) metabolic activity assay (CellTiter 96® AQueous Assay kit). The results are shown in FIGS. 9C, 9D and 9E, respectively.
(§2) The procedure of Example 9 was followed, substituting cells of the following solid tumor cell lines for the cells treated in Example 9: A549 human lung cancer cells, CAPAN human pancreatic cancer cells, T47D human breast cancer cells, […], A2058 human melanoma and COS-7 monkey fibroblast cell lines.

A2058 human melanoma = assay: Cell viability assay, A2058; type: cell-based
Description: as §1, §2

Stat5a/b = assay: Nuclear Stat5a/b immunostaining in CWR22Rv1 xenograft tumors; type: in vivo, nude mice; settings: CWR22Rv1 xenograft tumors of Example 10
Description: Nuclear active Stat5a/b or nuclear active Stat3 were analyzed by immunostaining with an anti-Stat5a/b or anti-Stat3 antibody, respectively, and biotin-streptavidin amplified peroxidase antiperoxidase immunodetection of paraffin-embedded sections of the prostate xenograft tumors of Example 10. Anti-Stat5a/b (mAb) (55 ng/ml) (Santa Cruz Biotechnology) was used as the primary antibody and antigen-antibody complexes were detected by appropriate biotinylated goat secondary antibodies (Biogenex Laboratories) followed by streptavidin-horseradish-peroxidase complex, and 3,3′-diaminobenzidine as chromogen and Mayer hematoxylin as counterstain. Three microscopic views of each tumor (ten tumors per each treatment group) were photographed at 20× magnification. Nuclear Stat5 and Stat3 indexes were determined by counting epithelial cells with nuclear Stat5a/b immunostaining-positive cells per total number of epithelial cells per view. The counts were averaged within the tumors in a given treatment group.

Stat5a = target: T2, Stat5a (Homo sapiens, UniProt P42229); assay: Stat5a translocation to the nucleus in PC3 cells (immunofluorescence); type: cell-based; design: expressed in transfected cells; host or cells: PC-3 (human prostate cancer cell line); settings: 2 hours pretreatment, 10 nmol/L Prl 30 minutes
T2 sequence (P42229 1-794): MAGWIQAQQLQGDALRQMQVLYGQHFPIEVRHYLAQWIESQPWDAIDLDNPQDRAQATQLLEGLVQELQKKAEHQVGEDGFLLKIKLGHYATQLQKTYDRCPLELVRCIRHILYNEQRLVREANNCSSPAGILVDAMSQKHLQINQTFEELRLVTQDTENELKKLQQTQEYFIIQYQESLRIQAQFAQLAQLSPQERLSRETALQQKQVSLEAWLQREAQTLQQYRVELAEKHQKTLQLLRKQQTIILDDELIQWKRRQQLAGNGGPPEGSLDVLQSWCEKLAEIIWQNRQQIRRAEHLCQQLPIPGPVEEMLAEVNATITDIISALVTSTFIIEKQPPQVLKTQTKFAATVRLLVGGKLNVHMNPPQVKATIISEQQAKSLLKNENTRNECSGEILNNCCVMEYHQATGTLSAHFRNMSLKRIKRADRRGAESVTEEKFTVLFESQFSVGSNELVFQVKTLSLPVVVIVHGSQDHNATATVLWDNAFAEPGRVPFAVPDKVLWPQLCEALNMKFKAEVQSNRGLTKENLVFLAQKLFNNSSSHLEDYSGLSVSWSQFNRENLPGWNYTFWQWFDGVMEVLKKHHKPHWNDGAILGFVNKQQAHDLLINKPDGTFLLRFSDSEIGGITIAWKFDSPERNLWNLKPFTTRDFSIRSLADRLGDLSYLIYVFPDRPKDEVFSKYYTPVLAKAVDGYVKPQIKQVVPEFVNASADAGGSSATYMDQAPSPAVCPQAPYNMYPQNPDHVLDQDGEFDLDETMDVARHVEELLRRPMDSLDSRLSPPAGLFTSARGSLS
Description: PC3 cells were infected with Ade-Stat5a and Ade-PrlR at MOI 5 for each adenovirus. Cells were pretreated with N6BAP or vehicle (DMSO) for 2 hours and then stimulated with 10 nmol/L Prl for 30 minutes. Cells were fixed with 100% methanol for 15 min and subsequently permeabilized with 0.1% Triton X-100 in PBS (pH 7.4). After blocking with 2% bovine serum albumin in PBS, cells were incubated with an antibody specific for Stat5a or Stat5b at 4° C. for 2 hours. Cells were then washed with PBS and incubated with FITC-conjugated secondary antibody (Jackson ImmunoResearch) at room temperature for 1 hour. The images were taken by using an inverted fluorescence microscopy (Carl Zeiss). […] It should be noted the drug effect in this study was not due to cell apoptosis induction, as the treatment time was only 2 hours. Treatment of at least 48 hours is required for the compound to induce prostate cancer cell apoptosis.

T1 sequence (P51692 whole entry, species assumed): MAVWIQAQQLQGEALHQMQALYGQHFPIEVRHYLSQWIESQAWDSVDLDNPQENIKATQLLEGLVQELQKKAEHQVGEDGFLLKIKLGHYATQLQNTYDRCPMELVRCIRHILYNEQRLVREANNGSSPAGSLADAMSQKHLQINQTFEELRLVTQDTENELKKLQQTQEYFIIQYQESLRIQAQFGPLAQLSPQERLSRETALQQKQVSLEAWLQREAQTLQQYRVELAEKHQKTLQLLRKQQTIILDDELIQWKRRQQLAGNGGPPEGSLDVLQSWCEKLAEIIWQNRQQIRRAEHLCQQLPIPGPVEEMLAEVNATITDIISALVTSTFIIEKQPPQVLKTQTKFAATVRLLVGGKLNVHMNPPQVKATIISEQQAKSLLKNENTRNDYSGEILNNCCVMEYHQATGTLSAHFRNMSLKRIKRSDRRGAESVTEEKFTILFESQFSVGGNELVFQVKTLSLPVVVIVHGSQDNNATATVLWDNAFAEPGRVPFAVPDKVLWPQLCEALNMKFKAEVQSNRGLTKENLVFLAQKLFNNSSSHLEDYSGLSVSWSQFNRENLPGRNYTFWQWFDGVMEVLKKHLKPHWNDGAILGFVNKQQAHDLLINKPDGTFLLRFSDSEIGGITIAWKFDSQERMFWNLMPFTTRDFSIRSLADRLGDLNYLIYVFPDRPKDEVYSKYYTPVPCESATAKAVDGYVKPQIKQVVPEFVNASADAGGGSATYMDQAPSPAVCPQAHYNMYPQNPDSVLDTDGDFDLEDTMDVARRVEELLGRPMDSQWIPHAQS

O=P(O)(O)OC[C@H]1O[C@@H](n2cnc3c(NCc4ccccc4)ncnc32)[C@H](O)[C@@H]1O [N6BAP, N^6-benzyladenosine-5′-monophosphate]
transcriptional activity of Stat5b on the β-casein gene promoter (Stat5b): inhibited Stat5a and Stat5b transcriptional activity in a concentration-dependent manner; also recorded: effectively blocks the transcriptional activity | cell viability [1]: did not affect the viability | cell viability (A2058 human melanoma): did not affect the viability | nuclear Stat5a/b expression in xenograft tumors (Stat5a/b): inhibits nuclear Stat5a/b expression | translocation of Stat5a to the nucleus (Stat5a): blocks translocation of Stat5a to the nucleus
